Earlier results as cited in patent publication US6579860B1, “Interleukin-6 production inhibitors” (Toray Industries, Inc., priority 1998, dated 2003).

tested on: mouse macrophage cells; conditions: Pannanen N. et al., Pharmaceutical Research 12(6)

SMILES | effect on cytokine production/release
O=P(O)(O)C(Cl)(Cl)P(=O)(O)O [clodronate] | suppresses cytokine production
CC(O)(P(=O)(O)O)P(=O)(O)O [etidronate] | does not have such an effect
NCCC(O)(P(=O)(O)O)P(=O)(O)O [pamidronate] | enhances release of cytokine
